According to ChEMBL document CHEMBL5614450, “SAR Study of 4,8-Disubstituted Pyrimido[5,4-d]pyrimidines Exhibiting Antitrypanosomal and Antileishmanial Activity” (ACS Med Chem Lett, 2024):

How the values were obtained:
Trypanosoma brucei = test: Anti-trypanosomal activity against trypomastigote blood stage of Trypanosoma brucei Lister 427 assessed as inhibition of parasite growth incubated for 72 hrs by resazurin-dye based assay; assay type: functional, organism-based; settings: Lister 427, 72 h
[1] = Cytotoxicity against human THP-1 cells assessed as reduction in cell viability incubated for 72 hrs by MTT assay; assay type: toxicity, cell-based
[2] = Selectivity index, ratio of CC50 for cytotoxicity against human THP-1 cells to IC50 for anti-trypanosomal activity against trypomastigote blood stage of Trypanosoma brucei Lister 427; assay type: toxicity, cell-based; settings: read-out: Ratio CC50/IC50
Leishmania infantum [3] = test: Anti-leishmanial activity against promastigote stage of Leishmania infantum MHOM/MA/67/ITMAP-263 assessed as inhibition of parasite growth at 10 uM incubated for 72 hrs by resazurin-dye based assay; assay type: functional
Leishmania infantum [4] = test: Anti-leishmanial activity against promastigote stage of Leishmania infantum MHOM/MA/67/ITMAP-263 assessed as inhibition of parasite growth incubated for 72 hrs by resazurin-dye based assay; assay type: functional, organism-based; settings: MHOM/MA/67/ITMAP-263, 72 h
Leishmania infantum [5] = test: Anti-leishmanial activity against luciferase expressing intracellular amastigote stage of Leishmania infantum MHOM/MA/67/ITMAP-263 infected in human THP-1 cells assessed as inhibition of parasite growth at 10 uM incubated for 72 hrs by Steady-Glo luciferase assay; assay type: functional; settings: MHOM/MA/67/ITMAP-263, THP-1
[6] = Selectivity index, ratio of CC50 for cytotoxicity against human THP-1 cells to IC50 for anti-leishmanial activity against promastigote stage of Leishmania infantum MHOM/MA/67/ITMAP-263; assay type: toxicity, cell-based; settings: read-out: Ratio CC50/IC50
[7] = Cytotoxicity against human A549 cells assessed as reduction in cell viability at 10 uM incubated for 24 hrs by Cell-Titer Glo luminescence assay; assay type: toxicity, cell-based; settings: read-out: INH
[8] = Cytotoxicity against human HEK293 cells assessed as reduction in cell viability at 10 uM incubated for 24 hrs by Cell-Titer Glo luminescence assay; assay type: toxicity, cell-based; settings: read-out: INH
CYP3A4 = CYP3A4 (Homo sapiens, UniProt P08684); test: Inhibition of human CYP3A4 expressed in insect cell microsomes at 10 uM preincubated for 20 mins followed by NADP+ and substrate addition and measured after 10 mins by fluorescence based analysis; assay type: ADME, Microsome; settings: recombinant human CYP3A4 expressed in insect cell microsomes, time 30 min
CYP3A4, sequence (P08684 whole entry): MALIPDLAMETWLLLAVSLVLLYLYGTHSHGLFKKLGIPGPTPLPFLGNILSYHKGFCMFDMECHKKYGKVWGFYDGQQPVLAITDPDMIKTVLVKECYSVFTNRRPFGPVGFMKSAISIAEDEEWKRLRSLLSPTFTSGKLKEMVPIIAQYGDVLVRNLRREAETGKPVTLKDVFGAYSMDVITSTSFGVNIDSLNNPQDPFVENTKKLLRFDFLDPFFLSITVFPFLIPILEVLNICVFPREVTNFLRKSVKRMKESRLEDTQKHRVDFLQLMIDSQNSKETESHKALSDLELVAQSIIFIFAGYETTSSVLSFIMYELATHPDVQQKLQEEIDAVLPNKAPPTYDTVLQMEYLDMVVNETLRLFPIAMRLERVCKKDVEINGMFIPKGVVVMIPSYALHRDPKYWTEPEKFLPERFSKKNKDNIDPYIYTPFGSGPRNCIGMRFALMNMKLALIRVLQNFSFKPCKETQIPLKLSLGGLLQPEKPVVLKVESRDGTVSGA

hERG (KCNH2) = hERG (KCNH2) (Homo sapiens, UniProt Q12809); test: Displacement of tracer from hERG extracted from membrane at 10 uM incubated for 2 hrs by fluorescence polarization assay; assay type: toxicity, cell membranes; settings: hERG membrane preparation, probe tracer (not named)
hERG (KCNH2), sequence (Q12809 whole entry): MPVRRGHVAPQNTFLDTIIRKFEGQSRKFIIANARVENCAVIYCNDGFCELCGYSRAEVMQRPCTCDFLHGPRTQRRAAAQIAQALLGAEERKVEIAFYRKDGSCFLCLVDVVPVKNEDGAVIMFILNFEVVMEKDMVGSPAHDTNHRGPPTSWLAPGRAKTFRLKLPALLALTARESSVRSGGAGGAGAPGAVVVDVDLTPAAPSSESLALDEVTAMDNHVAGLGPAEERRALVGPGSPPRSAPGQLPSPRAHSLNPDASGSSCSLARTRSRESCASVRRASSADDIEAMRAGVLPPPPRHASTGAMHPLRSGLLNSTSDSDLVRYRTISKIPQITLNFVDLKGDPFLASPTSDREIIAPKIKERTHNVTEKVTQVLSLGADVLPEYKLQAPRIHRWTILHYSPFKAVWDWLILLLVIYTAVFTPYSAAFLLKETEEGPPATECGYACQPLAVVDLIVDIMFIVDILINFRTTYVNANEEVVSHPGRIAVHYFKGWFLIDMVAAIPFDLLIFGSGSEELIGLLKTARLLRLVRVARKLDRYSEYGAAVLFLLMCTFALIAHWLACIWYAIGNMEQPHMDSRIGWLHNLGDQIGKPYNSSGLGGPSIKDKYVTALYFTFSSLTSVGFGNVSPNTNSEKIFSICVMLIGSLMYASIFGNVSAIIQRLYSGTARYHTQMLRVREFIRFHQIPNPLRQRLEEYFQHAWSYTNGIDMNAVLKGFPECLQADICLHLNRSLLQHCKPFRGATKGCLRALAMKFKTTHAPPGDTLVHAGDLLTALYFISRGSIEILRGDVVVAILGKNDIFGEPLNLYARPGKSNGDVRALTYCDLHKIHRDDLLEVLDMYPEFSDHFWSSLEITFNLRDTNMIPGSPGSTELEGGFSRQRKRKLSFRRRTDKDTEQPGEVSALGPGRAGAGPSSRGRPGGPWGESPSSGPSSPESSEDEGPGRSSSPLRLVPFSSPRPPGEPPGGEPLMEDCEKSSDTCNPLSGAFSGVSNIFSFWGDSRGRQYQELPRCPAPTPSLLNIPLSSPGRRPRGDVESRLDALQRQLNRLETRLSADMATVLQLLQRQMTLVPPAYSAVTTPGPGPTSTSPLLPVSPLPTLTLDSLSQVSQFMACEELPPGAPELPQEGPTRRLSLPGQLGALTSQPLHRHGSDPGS

Leishmania infantum [9] = test: Anti-leishmanial activity against luciferase expressing intracellular amastigote stage of Leishmania infantum MHOM/MA/67/ITMAP-263 infected in human THP-1 cells assessed as inhibition of parasite growth incubated for 72 hrs by Steady-Glo luciferase assay; assay type: functional, organism-based; settings: MHOM/MA/67/ITMAP-263, THP-1, 72 h
[10] = Selectivity index, ratio of CC50 for cytotoxicity against human THP-1 cells to IC50 for anti-leishmanial activity against luciferase expressing intracellular amastigote stage of Leishmania infantum MHOM/MA/67/ITMAP-263 infected in human THP-1 cells; assay type: toxicity, cell-based; settings: read-out: Ratio CC50/IC50

Row | Structure (SMILES) | IC50 (Trypanosoma brucei) [nM] | CC50 at 72 h [1] [µM] | selectivity ratio [2] | inhibition at 10 µM (Leishmania infantum [3]) [%] | IC50 (Leishmania infantum [4]) [µM] | inhibition at 10 µM (Leishmania infantum [5]) [%] | selectivity ratio [6] | cytotoxicity at 24 h, 10 µM [7] [%] | cytotoxicity at 24 h, 10 µM [8] [%] | inhibition at 10 min, 10 µM (CYP3A4) [%] | inhibition at 2 h, 10 µM (hERG (KCNH2)) [%] | IC50 (Leishmania infantum [9]) [nM] | selectivity ratio [10]
1 | COc1ccc(/C=N/Nc2ncnc3c(Nc4ccc(OC(F)(F)F)cc4)ncnc23)cc1O | 260 | > 10 | > 39 | 60 | 2.54 | < 0 | 4 | 38 | 10 | 0 | 61 |  | 
2 | Oc1ccc(/C=N/Nc2ncnc3c(Nc4ccc(Cl)c(C(F)(F)F)c4)ncnc23)cc1O | 430 | > 10 | > 23 | 5 |  |  |  | 15 | 3 | 0 | 29 |  | 
3 | Oc1cc(/C=N/Nc2ncnc3c(Nc4ccc(OC(F)(F)F)cc4)ncnc23)cc(O)c1O | 160 | > 10 | > 64 | 5 |  |  |  | 9 | 7 | 21 | 30 |  | 
4 | Oc1cc(/C=N/Nc2ncnc3c(Nc4ccc(Cl)c(C(F)(F)F)c4)ncnc23)cc(O)c1O | 2760 | > 10 | > 4 | < 0 |  |  |  | -4 | -2 | 11 | 49 |  | 
5 | COc1cccc(Nc2ncnc3c(N/N=C/c4ccc(OC)c(OC)c4)ncnc23)c1 | 1320 | > 50 | > 38 | 98 | 1.44 | 34 | > 35 | 40 | 18 | 0 | 35 | > 20000 | 
6 | COc1cc(/C=N/Nc2ncnc3c(Nc4ccc(OC(F)(F)F)cc4)ncnc23)cc(OC)c1OC | 390 | > 10 | > 26 | 24 |  |  |  | 6 | 2 | 11 | 21 |  | 
7 | COc1cc(/C=N/Nc2ncnc3c(Nc4ccc(F)c(Cl)c4)ncnc23)cc(OC)c1O | 5830 | > 100 | > 17 | < 0 |  |  |  | 5 | 11 | 32 | 38 |  | 
8 | Oc1ccc(/C=N/Nc2ncnc3c(Nc4ccc(OC(F)(F)F)cc4)ncnc23)cc1O | 350 | > 10 | > 29 | 52 | 14.9 | < 0 | 1 | 18 | 24 | 0 | 21 |  | 
9 | CCCCCCCCCCCCCCCCOP(=O)([O-])OCC[N+](C)(C)C [MILTEFOSINE] |  |  |  | 97 | 11.9 | 99 | 2.5 |  |  |  |  | 710 | 42
10 | COc1cc(/C=N/Nc2ncnc3c(Nc4ccc(Cl)c(C(F)(F)F)c4)ncnc23)cc(OC)c1O | 5630 | > 10 | > 2 | 9 |  |  |  | -2 | -1 | 19 | 3 |  | 
11 | COc1ccc(/C=N/Nc2ncnc3c(Nc4ccc(F)c(Cl)c4)ncnc23)cc1O | 5810 | > 10 | > 2 | 13 |  |  |  | -9 | -3 | 20 | -7 |  | 
12 | COc1cc(/C=N/Nc2ncnc3c(Nc4ccc(OC(F)(F)F)cc4)ncnc23)ccc1O | 180 | > 10 | > 54 | 50 | 8.75 | < 0 | 1 | 38 | 19 | 0 | 64 |  | 
